Experimental findings from patent US11365207B2, “Sulfur-containing polycyclic-hydroxypyridone carboxamide analog against HIV” (priority 2018, dated 2022) are described below.

Assay type in all cases: cell-based
A short description of data set [1]: Toxicity test of C8166 cells (MTT colorimetric method). The settings on record: human. The method, then: (§1) Human T lymphocytic series C8166 and HIV-1 experiment strain HIV-1IIIB are both from National Institutes of Health (NIH); cells are cultured in the RPMI-1640 complete culture medium containing 10% fetal bovine serum. HIV-1IIIB is prepared by using a conventional method, titration and calculation of TCID 50 of viruses are performed. Virus stock solution is subpackaged and stored at −70° C. Cells and viruses are cryopreserved and recovered according to conventional methods.
6. Toxicity Test of C8166 Cells
100 μl of 4×10^5 ml C8166 was mixed with different to-be-detected drug solutions, and 3 repetition wells were set. Meanwhile, control wells were set. Culture was performed for 3 days under the conditions of 37° C. and 5% CO2. Cytotoxicity was detected with MTT colorimetric method. The OD value was measured with EL ×800 ELIASA, the wavelength was measured as 570/630 nm. The CC50 value was calculated (50% cytotoxic concentration), namely, the concentration of the drug when toxicity was generated for 50% normal T lymphocytic series C8166.
(§2) According to experiment results, fitted curves are drawn using Origin2016, the 50% effective concentrations (EC50) of the samples inhibiting viruses, 50% cell growth inhibition concentrations (CC50) and TI (therapeutic index) value against HIV-1 activity are calculated based on Reed & Muench method, and the TI value is TI=CC50/EC50.
1. Cell growth survival rate (%)=experiment well OD value/control well OD value×100

The subject of data set [2] is HIV-1IIIB. In words: Inhibition experiment for cytopathic effect (CPE) of HIV-1IIIB, syncytia formation in C8166 cells. Conditions: Human immunodeficiency virus 1, 72 h, HIV-1IIIB in C8166 cells, 3 days. The method, then:
as §1
7. Inhibition Experiment for Cytopathic Effect (CPE) of HIV-1IIIB
8×10^5/ml C8166 cells were inoculated onto the 96-well cell culture plate containing 100 μl/well drug subjected to gradient multiple proportion dilution in an amount of 50 μl/well, and then 50 μl HIV-1IIIB was added to dilute the supernatant, 1300 TCID 50/well. 3 repetition wells were set. Meanwhile, normal cell control wells without drugs were set. TDF and dolutegravir were positive drug controls. Culture was performed for 3 days under the conditions of 37° C. and 5% CO2, and syncytia formation were counted under the inverted microscope (100×). EC50 (50% Effective Concentration) is the concentration of the drug when 50% of syncytia formation is inhibited.
as §2
2. HIV-1 cytopathic cell inhibition rate (%)=(1−experiment well syncytia number/control well syncytia number)×100

Data set [3] has as its system HIV-1IIIB. In words: Inhibition of replication in HIV-1IIIB acute infectious C8166 cells (p24 antigen capture ELISA). Conditions: for EC50: Human immunodeficiency virus 1, 72 h, P24 antigen, HIV-1IIIB acute infectious C8166 cells, 3 days; for inhibitory effect on HIV-1 replication in vitro: statement in words. The method, then:
as §1
5. Measurement of HIV-1 p24 Antigen with p24 Antigen Capture ELISA Method
The 1 μg/plate of anti-mouse IgG Fc antibody was paved at 4° C. for overnight; the plate was sealed with 5% skimmed milk powder 4° C. for overnight; 100 μl/well mouse anti-p24 monoclonal antibody was added at 37° C. for 1 h; 100 μl/well (1:100) diluted rabbit anti-p24 polyclonal antibody (homemade) was added for 1 h at 37° C.; 100 μl/well (1:20000) diluted goat anti-rabbit IgG HRP was added for 1 h at 37° C.; OPD substrate reaction solution was added. After 10 min, 2M sulfuric acid was added to stop the reaction. The OD value was determined by Elx800 ELISA, and the wavelength was measured as 490/630 nm. The inhibition rate and EC50 of the drug on the p24 antigen replication and expression of HIV-1, namely, the concentration of the drug inhibiting 50% HIV-1 p24 antigen were calculated, namely, the concentration of the drug inhibiting 50% HIV-1 p24 antigen expression was calculated.
8. Inhibition Effect of Samples on Replication in Experiment Strain HIV-1IIIB Acute Infectious C8166 Cells
4×10^5 cells/ml C8166 cells and HIV-1IIIB MOI (multiplicity of infection=0.04) are infected for 2 h at 37° C., the obtained mixture is washed three times with PBS to remove free virus ions, 100 μl of cells are inoculated onto the 96-well plate containing 100 μl of to-be-detected compounds having different dilutions and cultured for 3 days under the conditions of 37° C. and 5% CO2. The cultural supernatant is centrifuged and then collected, and finally lysed and inactivated with 0.5% Triton X-100. The inhibition effect of the drug on HIV-1 replication is detected by using the p24 antigen capture ELISA method.
as §2
3. HIV-1 p24 antigen expression inhibition rate (%)=(1−experiment well OD value/control well OD value)×100

[4] abbreviates: C8166 cells (T lymphocytic cell line), C8166 cells, MTT, 3 days, read-out: CC50.

Structures can show the parent of a compound that is named as a salt. Where two headings read alike, the source gives them in different places.

On to `CC[C@@H]1CSC2Cn3cc(C(=O)NCc4ccc(F)cc4F)c(=O)c(O)c3C(=O)N21` (stereo partly shown) [Compound 3], for which, in data set [1] (setting [4]), the CC50 at 3 days amounted to 18600 ± 350 nM. Moreover, the EC50 stood at 28.9 ± 5.11 pM in the data set with HIV-1IIIB [2] (values given in pM) and 35.1 ± 6.02 pM in the data set on HIV-1IIIB [3] (values given in pM).

For the compound `O=C(NCc1ccc(F)cc1F)c1cn2c(c(O)c1=O)C(=O)N1C(C2)SC[C@@H]1c1ccccc1` (stereo partly shown) [Compound 10], the CC50 at 3 days in data set [1] (setting [4]) turned out to be 45160 ± 410 nM. In addition, the EC50 in the data set with HIV-1IIIB [2] (values in nM) was found to be 3820 ± 510 pM; with HIV-1IIIB [3] (values in nM), 4160 ± 580 pM.

`CC(C)(C)[C@H]1CSC2Cn3cc(C(=O)NCc4ccc(F)cc4F)c(=O)c(O)c3C(=O)N21` (stereo partly shown) [Compound 8]: the CC50 at 3 days in data set [1] (setting [4]) is 26300 ± 350 nM. Further, the EC50 in the data set with HIV-1IIIB [2] (values given in pM) is 716 ± 103 pM; with HIV-1IIIB [3] (values given in pM) it was 781 ± 113 pM.

On to `C[C@H]1CSC2Cn3cc(C(=O)NCc4ccc(F)cc4)c(=O)c(O)c3C(=O)N21` (stereo partly shown) [Compound 66], for which the CC50 at 3 days in data set [1] (setting [4]) is 20100 ± 210 nM. Moreover, the EC50 in the data set on HIV-1IIIB [2] (values given in pM) was found to be 75.3 ± 8.61 pM; with HIV-1IIIB [3] (values given in pM), 83.6 ± 10.9 pM. Further, the “inhibitory effect on HIV-1 replication in vitro” value (shortened to “inhibitory effect”) in the data set on HIV-1IIIB [3] is on record as “strong inhibitory effect”.

On to `O=C(NCc1c(F)cc(F)cc1F)c1cn2c(c(O)c1=O)C(=O)N1C(C2)S[C@@H]2CC[C@H]1C2` (stereo partly shown) [Compound 34], for which half-maximal cytotoxicity in data set [1] (CC50 at 3 days) was put at 20700 ± 320 nM. Also, the figures for the EC50 in the data set with HIV-1IIIB [2] (values given in pM) and with HIV-1IIIB [3] (values given in pM) were 35.9 ± 6.11 pM and 38.1 ± 6.52 pM, respectively. For the same compound, the “inhibitory effect” value is listed as “extremely strong inhibition effects” with HIV-1IIIB [3] and “strong inhibitory effect” in the data set on HIV-1IIIB [3] (listed as compound 34).

Consider `C[C@@H]1CCO[C@H]2Cn3cc(C(=O)NCc4ccc(F)cc4F)c(=O)c(O)c3C(=O)N12` [Dolutegravir, reference compound], for which the CC50 at 3 days in data set [1] (setting [4]) turned out to be 26600 ± 2200 nM. Further, the EC50 with HIV-1IIIB [2] (values in nM) came to 2130 ± 330 pM; in the data set on HIV-1IIIB [3] (values in nM) it was 1050 ± 120 pM.

For the compound `CC[C@H]1CSC2Cn3cc(C(=O)NCc4ccc(F)cc4F)c(=O)c(O)c3C(=O)N21` (stereo partly shown) [Compound 4], in data set [1] (setting [4]), the CC50 at 3 days was 18600 ± 350 nM. Moreover, the EC50 was determined as 28.9 ± 5.11 pM in the data set on HIV-1IIIB [2] (values given in pM) and 35.1 ± 6.02 pM in the data set on HIV-1IIIB [3] (values given in pM).

For the compound `C[C@@H]1CCSC2Cn3cc(C(=O)NCc4ccc(F)cc4F)c(=O)c(O)c3C(=O)N21` (stereo partly shown) [Compound 18], the CC50 at 3 days in data set [1] (setting [4]) worked out at 14000 ± 210 nM. For the same compound, the EC50 in the data set with HIV-1IIIB [2] (values given in pM) was determined as 10.2 ± 2.11 pM; in the data set on HIV-1IIIB [3] (values given in pM) it was 11.1 ± 2.09 pM. In addition, the entries for the “inhibitory effect” value with HIV-1IIIB [3] and with HIV-1IIIB [3] (listed as compound 18) were “extremely strong inhibition effects” and “strong inhibitory effect”, respectively.

On to `CC(C)C[C@H]1CSC2Cn3cc(C(=O)NCc4ccc(F)cc4F)c(=O)c(O)c3C(=O)N21` (stereo partly shown) [Compound 20], for which the CC50 at 3 days in data set [1] (setting [4]) turned out to be 18300 ± 190 nM. Besides, the values for the concentration for a half-maximal effect (EC50) with HIV-1IIIB [2] (values given in pM) and in the data set on HIV-1IIIB [3] (values given in pM) were 125 ± 17 pM and 148 ± 20.1 pM, respectively.

For the compound `C[C@@H]1CSC2Cn3cc(C(=O)NCc4ccc(F)cc4F)c(=O)c(O)c3C(=O)N21` (stereo partly shown) [Compound 1], the CC50 at 3 days in data set [1] (setting [4]) is 20300 ± 210 nM. Further, the values for the EC50 in the data set on HIV-1IIIB [2] (values given in pM) and in the data set on HIV-1IIIB [3] (values given in pM) were 187 ± 31.1 pM and 201 ± 33.3 pM, respectively.

Take `CC(C)OC(=O)OCOP(=O)(CO[C@H](C)Cn1cnc2c(N)ncnc21)OCOC(=O)OC(C)C` [TDF, tenofovir disoproxil fumarate, reference compound]: the CC50 at 3 days in data set [1] (setting [4]) worked out at 157000 ± 21400 nM. In addition, the EC50 in the data set on HIV-1IIIB [2] (values in nM) amounted to 12100 ± 11300 pM; with HIV-1IIIB [3] (values in nM), 8070 ± 4720 pM.

For the compound `CC(C)[C@H]1CSC2Cn3cc(C(=O)NCc4ccc(F)cc4F)c(=O)c(O)c3C(=O)N21` (stereo partly shown) [Compound 6], the CC50 at 3 days in data set [1] (setting [4]) is 22600 ± 480 nM. Also, the EC50 with HIV-1IIIB [2] (values given in pM) came out at 182 ± 20.3 pM; in the data set with HIV-1IIIB [3] (values given in pM) it was 208 ± 36.1 pM.

For `O=C(NCc1ccc(F)cc1F)c1cn2c(c(O)c1=O)C(=O)N1C(C2)SC[C@@H]1Cc1ccccc1` (stereo partly shown) [Compound 12], the CC50 at 3 days in data set [1] (setting [4]) is 28600 ± 320 nM. The EC50 was 526 ± 77.1 pM with HIV-1IIIB [2] (values given in pM) and 589 ± 86.1 pM in the data set with HIV-1IIIB [3] (values given in pM).

`CC(C)C1CSC2Cn3cc(C(=O)NCc4ccc(F)cc4F)c(=O)c(O)c3C(=O)N21` (stereo not shown) [Compound 5]: the CC50 at 3 days in data set [1] (setting [4]) came out at 16100 ± 300 nM. The EC50 in the data set with HIV-1IIIB [2] (values given in pM) amounted to 162 ± 18.1 pM; in the data set on HIV-1IIIB [3] (values given in pM), 188 ± 22.8 pM.

Consider `C[C@H]1CSC2Cn3cc(C(=O)NCc4ccc(F)cc4F)c(=O)c(O)c3C(=O)N21` (stereo partly shown) [Compound 2], for which the CC50 at 3 days in data set [1] (setting [4]) is 11330 ± 110 nM. Besides, the EC50 in the data set on HIV-1IIIB [2] (values given in pM) stood at 15.7 ± 2.61 pM; with HIV-1IIIB [3] (values given in pM), 18.1 ± 2.86 pM. In addition, the results for the “inhibitory effect” value in the data set on HIV-1IIIB [3] and in the data set on HIV-1IIIB [3] (listed as compound 2) were “extremely strong inhibition effects” and “strong inhibitory effect”, respectively.
